For assay [1], the system named is AChE-Aβ complex (A549 cell-conditioned media). Kind of assay: ELISA, AChE found in a complex with Aβ in A549 cell-conditioned media. It counts as binding, human. Here is the method:
Human NSCLC cell lines, A549 (ATCC CCL‐185) and H1299 (ATCC CRL‐5803), were purchased from the American Type Culture Collection (ATCC, Manassas, VA, USA). Cells were seeded as we reported earlier in 5 mL HyClone Dulbecco's modified Eagle's medium/nutrient mixture F‐12 (DMEM/F12) (GE Healthcare Life Sciences, Pittsburgh, PA, USA), supplemented with 10% Fetalgro bovine growth serum (FBS; RMBIO, Missoula, MT, USA), 50 U·mL^−1 penicillin, and […] streptomycin (Invitrogen, Life Technologies, Carlsbad, CA, USA) in 25‐cm^2 tissue culture flasks, and allowed to grow overnight in an incubator at 37 °C, 95% humidity, and 5% CO2. The cells were counted after trypan blue staining, with a hemocytometer.
ELISAs were carried out as we previously reported. Nunc MaxiSorp 96‐well flat bottom plate (Thermo Fisher) wells were coated with samples as indicated. The plates were incubated overnight at 4 °C on a shaker to allow binding of the samples to the plate wells. After the incubation, the wells were washed 4× with TBST, filled with 400 µL blocking buffer (110 mM KCl, 5 mM NaHCO3, 5 mM MgCl2, 1 mM EGTA, 0.1 mM CaCl2, 20 mM HEPES, 1% BSA, pH 7.4), and incubated with shaking overnight at 4 °C. […] TBST was then used to wash the wells 4× before proceeding in one of two ways: (a) biotinylated samples were analyzed by adding 100 µL streptavidin–HRP conjugate in TBST (1 : 2500 dilution) to the samples followed by incubation for 3 h at RT on a shaker, or (b) samples without biotin were analyzed by adding 100 µL TBST containing the primary antibody as per the manufacturer's recommendation, incubating for 3 h at RT on a shaker, followed by washing the wells 4× with TBST. […] The reaction was stopped with 100 µL 2 M H2SO4 after incubating at RT for 0.5–15 min, resulting in a yellow color change, measured by absorbance at 450 nm. […] Before analysis, the OD from the data was corrected for nonspecific binding by subtracting the mean background absorbance for the negative controls. […] Statistical analysis was determined by the […] […] Data were expressed as the mean ± SD. […]
Background: ELISA stands for enzyme-linked immunosorbent assay.

The test system of the next assay is Aβ42. Particulars: HN and AChE compared; cited from earlier work. An excerpt: Humanin has been previously reported to bind amino acid residues 17–28 of Aβ (Fig. 1). AChE is also known to bind Aβ (1–16) and the Aβ (12–28) region (Fig. 1). Since the binding sites of AChE and HN on Aβ are overlapping, we previously investigated whether HN and AChE can simultaneously bind Aβ [79].

A further assay relates to Aβ40. Kind of assay: ELISA, binding of biotinylated-HN to immobilised Aβ40. Particulars: Aβ 100 nM on wells, biotinylated-HN 300 nM, increasing HS; three independent assays; Fig. 2B. Here is the method: ELISAs were carried out as we previously reported. Nunc MaxiSorp 96‐well flat bottom plate (Thermo Fisher) wells were coated with samples as indicated. The plates were incubated overnight at 4 °C on a shaker to allow binding of the samples to the plate wells. After the incubation, the wells were washed 4× with TBST, filled with 400 µL blocking buffer (110 mM KCl, 5 mM NaHCO3, 5 mM MgCl2, 1 mM EGTA, 0.1 mM CaCl2, 20 mM HEPES, 1% BSA, pH 7.4), and incubated with shaking overnight at 4 °C. The wells were then washed 4× with TBST, and 100 µL of sample at the desired concentration was added to each well and incubated with shaking overnight at 4 °C. TBST was then used to wash the wells 4× before proceeding in one of two ways: (a) biotinylated samples were analyzed by adding 100 µL streptavidin–HRP conjugate in TBST (1 : 2500 dilution) to the samples followed by incubation for 3 h at RT on a shaker, or (b) samples without biotin were analyzed by adding 100 µL TBST containing the primary antibody as per the manufacturer's recommendation, incubating for 3 h at RT on a shaker, followed by washing the wells 4× with TBST. […] The reaction was stopped with 100 µL 2 M H2SO4 after incubating at RT for 0.5–15 min, resulting in a yellow color change, measured by absorbance at 450 nm. […] Statistical analysis was determined by the […] […] Data were expressed as the mean ± SD. […]

Turning to `Nc1ncnc2c1ncn2[C@@H]1O[C@H](COP(=O)(O)OP(=O)(O)OP(=O)(O)O)[C@@H](O)[C@H]1O` [ATP, Adenosine triphosphate], the “decrease in levels of AChE found in a complex with Aβ” value in assay [1] (100 μM ATP, 6E10 or 82E1 on wells, three experiments in triplicate, Fig. 5A) was ~ 2.3 fold. In addition, in assay [1] (1 mM ATP, 6E10 or 82E1 on wells, Fig. 5A), the “levels of AChE found in a complex with Aβ” value is reported as “decreased to almost blank levels”. In addition, in assay [1] (anti-AChE on wells, Aβ detected by 6E10 or 82E1, Fig. 5B), the “Aβ detected on anti-AChE wells upon ATP addition” value is reported as “comparable decrease in the levels of Aβ”. As to Humanin [HN], the “affinity for Aβ42” value in the assay with Aβ42 was “comparable affinities”.

Consider heparan sulfate [HS], for which the “effect of HS on binding of HN to Aβ40” value in the assay on Aβ40 was “No effects”.
